Assay results reported in PubChem BioAssay AID1963835 (Molecular Pharmacology Branch, DTP, NCI, 2024).
“And” between values parts separate entries of the source, which are not always exact repeats. Equal values may be shown once.

Test system: 699152-130-R-J1-PDC complex spheroid viability
Assay: Anticancer human tumor 699152-130-R-J1-PDC patient-derived pancreatic carcinoma cell line growth inhibition [POLQ]
Conditions: for viability, T/C: stronger effect = lower value
Protocol: Multicellular complex tumor spheroid response to Polymerase (POL) inhibitors (novobiocin, ART-558, RP6685) in combination with a variety of drugs and investigational agents in selected tumor cell lines
The POL inhibitors (novobiocin, ART-558, and RP6685) were evaluated both individually and in combination with standard of care and investigational anticancer small molecules within a complex spheroid model of solid tumors. . Complex spheroids include a stromal component modeled by human endothelial cells (HUVEC) and fibroblasts modeled by human mesenchymal stem cells (MSCs). The concentration ranges selected for each drug and investigational agent were based upon clinically achievable concentrations if the clinical Cmax of the agent was known.
Compounds. The drugs and investigational agents: novobiocin (NSC847541), ART-558 (NSC835418), RP-6685 (NSC848927), peposertib (NSC802822), ceralasertib (NSC780249), elimusertib (NSC800525), camonsertib (NSC841442), AZD-1390 (NSC803789), olaparib (NSC753686), talazoparib (NSC767125), rucaparib (NSC756644), sotorasib (NSC818433), MRTX-1133 (NSC836407), SN-38 (NSC673596), topotecan (NSC609699), epotoside (NSC141540), doxorubicin (NSC123127), gemcitabine (NSC613327), 5-fluorouracil (NSC19893), paclitaxel (NSC125973), vemurafenib (NSC761431), MSA-2 (NSC828583), SN-011 (NSC837082), adavosertib (NSC754352), prexasertib (NSC758257), carboplatin (NSC241240) and oxaliplatin (NSC266046), were obtained from the National Cancer Institute (NCI) Developmental Therapeutics Program Chemical Repository (21). The FDA-approved anticancer drug set is available from the Developmental Therapeutics Program at https://dtp.cancer.gov/organization/dscb/obtaining/. […] The stock solutions were prepared in dimethyl sulfoxide (DMSO, Sigma-Aldrich, St. Louis, MO, cat. D2650), except for the platinum compounds which were prepared in saline (Quality Biological, Gaithersburg, MD, cat. 114-055-101), at 800-fold the tested concentration and stored at -70 degrees C prior to their use. All drugs and investigational agents were tested over a range starting from a high concentration at or near the clinical Cmax and decreasing in half-log increments. If the clinical Cmax for an agent had not been determined, the highest concentration tested was 10 microM, except for SN-38, which was tested at a high concentration of 1 microM.
Cell Culture. All cells were maintained in an incubator at 37 degrees C and 5% CO2 with 95% humidity. The PDC lines were cultured according to standard operating procedures established by the NCI PDMR (https://pdmr.cancer.gov). Table 3 of the manuscript, lists the cell lines along with the number of the three cell types plated to form the mct-spheroids and media for tumor cell growth. After thawing, all PDC lines, except 997537-175-T-J1-PDC and 415267-285-R-J2-PDC, were cultured in Matrigel-coated flasks prepared with a working solution of 1X Ham's F-12 nutrient mix, without supplementation (Thermo Fisher Scientific, cat. 11765054), 100 U/mL penicillin-streptomycin (Thermo Fisher Scientific, cat. 15140122), and 2.5% Matrigel (Corning Inc., Corning, NY, cat. 354248) for the first three passages. The two PDC lines 997537-175-T-J1-PDC and 415267-285-R-J2-PDC were cultured on uncoated flasks. The 857933-349-R-J2-PDC line was cultured in 6C/Colon 1B media containing advanced DMEM/F-12 (Thermo Fisher Scientific, cat. 12634028), 10 mM HEPES (Thermo Fisher Scientific, cat. 15630080), 1X GlutaMAX supplement (Thermo Fisher Scientific, cat. 35050061), 0.1 mg/mL primocin (InvivoGen, San Diego, CA, cat. ant-pm-2), 10% defined fetal bovine serum, heat inactivated (HyClone Laboratories Inc., Logan, UT, cat. SH30070.03HI), 50% L-WRN conditioned media (ATCC, cat. CRL-3276), 1.25 mM N-Acetyl-L-cysteine (Sigma-Aldrich, cat. A9165), 10 mM nicotinamide (Sigma-Aldrich, cat. N0636), 1X B-27 supplement (Thermo Fisher Scientific, cat. 17504044), 1X N-2 supplement (Thermo Fisher Scientific, cat. […]

[1] = curve of first compound, second compound 0.0316 µM
[2] = curve of first compound, second compound 0.1 µM
[3] = curve of first compound, second compound 0.316 µM
[4] = curve of first compound, second compound 1 µM
[5] = curve of first compound, second compound 3.16 µM
[6] = curve of first compound, second compound 10 µM
[7] = second compound 0.0316 µM, first compound 0.0316 µM
[8] = second compound 0.0316 µM, first compound 0.1 µM
[9] = second compound 0.0316 µM, first compound 0.316 µM
[10] = second compound 0.0316 µM, first compound 1 µM
[11] = second compound 0.1 µM, first compound 0.0316 µM
[12] = second compound 0.1 µM, first compound 0.1 µM
[13] = second compound 0.1 µM, first compound 0.316 µM
[14] = second compound 0.1 µM, first compound 1 µM
[15] = second compound 0.316 µM, first compound 0.0316 µM
[16] = second compound 0.316 µM, first compound 0.1 µM
[17] = second compound 0.316 µM, first compound 0.316 µM
[18] = second compound 0.316 µM, first compound 1 µM
[19] = second compound 1 µM, first compound 0.0316 µM
[20] = second compound 1 µM, first compound 0.1 µM
[21] = second compound 1 µM, first compound 0.316 µM
[22] = second compound 1 µM, first compound 1 µM
[23] = second compound 3.16 µM, first compound 0.0316 µM
[24] = second compound 3.16 µM, first compound 0.1 µM
[25] = second compound 3.16 µM, first compound 0.316 µM
[26] = second compound 3.16 µM, first compound 1 µM
[27] = second compound 10 µM, first compound 0.0316 µM
[28] = second compound 10 µM, first compound 0.1 µM
[29] = second compound 10 µM, first compound 0.316 µM
[30] = second compound 10 µM, first compound 1 µM
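Note: spheroids exposed to agents for 7 days before viability reading.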
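Throughout, for viability, T/C: percent of DMSO vehicle control viability so 100% = vehicle and 0% = no viable signal.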

## CCc1cc2c(N3CCc4c(cc(Cn5ccnc5)cc4-c4cn(C)nc4C(F)(F)F)C3=O)cc(C)nc2c(OC)n1 + COC1C(OC(N)=O)C(O)C(Oc2ccc3c(O)c(NC(=O)c4ccc(O)c(CC=C(C)C)c4)c(=O)oc3c2C)OC1(C)C
[1]
  IC50: > 10000 nM
[2]
  IC50: > 10000 nM
[3]
  IC50: > 10000 nM
[4]
  IC50: > 10000 nM
[5]
  IC50: > 10000 nM
[6]
  IC50: > 10000 nM
[7]
  viability, T/C: 91%
[8]
  viability, T/C: 91.9%
[9]
  viability, T/C: 89.5%
[10]
  viability, T/C: 93.2%
Second compound 0.0316 µM, first compound 3.16 µM
  viability, T/C: 101%
Second compound 0.0316 µM, first compound 10 µM
  viability, T/C: 100%
[11]
  viability, T/C: 93.9%
[12]
  viability, T/C: 91.4%
[13]
  viability, T/C: 91.7%
[14]
  viability, T/C: 101%
Second compound 0.1 µM, first compound 3.16 µM
  viability, T/C: 96.9%
Second compound 0.1 µM, first compound 10 µM
  viability, T/C: 99.5%
[15]
  viability, T/C: 94.5%
[16]
  viability, T/C: 91.4%
[17]
  viability, T/C: 89.8%
[18]
  viability, T/C: 96.1%
Second compound 0.316 µM, first compound 3.16 µM
  viability, T/C: 99%
Second compound 0.316 µM, first compound 10 µM
  viability, T/C: 106%
[19]
  viability, T/C: 98.8%
[20]
  viability, T/C: 83.5%
[21]
  viability, T/C: 97.2%
[22]
  viability, T/C: 96%
Second compound 1 µM, first compound 3.16 µM
  viability, T/C: 94.2%
Second compound 1 µM, first compound 10 µM
  viability, T/C: 99.8%
[23]
  viability, T/C: 92.4%
[24]
  viability, T/C: 86.8%
[25]
  viability, T/C: 84.2%
[26]
  viability, T/C: 98.5%
Second compound 3.16 µM, first compound 3.16 µM
  viability, T/C: 95%
Second compound 3.16 µM, first compound 10 µM
  viability, T/C: 102%
[27]
  viability, T/C: 93.2%
[28]
  viability, T/C: 102%
[29]
  viability, T/C: 88.5%
[30]
  viability, T/C: 100%
Second compound 10 µM, first compound 3.16 µM
  viability, T/C: 105%
Second compound 10 µM, first compound 10 µM
  viability, T/C: 106%

## CC(C)n1c(=O)n(C)c2cnc3cc(F)c(-c4ccc(OCCCN5CCCCC5)nc4)cc3c21
Compound 0.0316 µM
  viability, T/C: 93.3% and 103% and 119%
Compound 0.1 µM
  viability, T/C: 88.1% and 91.7% and 92.8%
Compound 0.316 µM
  viability, T/C: 98.6% and 105% and 99.7%
Compound 1 µM
  viability, T/C: 110% and 102% and 97.5%
Compound 3.16 µM
  viability, T/C: 96.3% and 110% and 87.4%
Compound 10 µM
  viability, T/C: 87.1% and 91.8% and 85.5%
Curve of compound
  IC50: > 10000 nM

## CCc1c2c(nc3ccc(O)cc13)-c1cc3c(c(=O)n1C2)COC(=O)[C@]3(O)CC + Cc1cccc(N(C)C(=O)C2C(O)CCN2c2nc(C)cc(C(F)(F)F)c2C#N)c1
[1]
  IC50: 39.2 nM
[2]
  IC50: 37.1 nM
[3]
  IC50: 48.8 nM
[4]
  IC50: 46.5 nM
[5]
  IC50: 62.7 nM
[6]
  IC50: 49.8 nM
Second compound 0.0316 µM, first compound 0.00316 µM
  viability, T/C: 64.4%
Second compound 0.0316 µM, first compound 0.01 µM
  viability, T/C: 54.2%
[7]
  viability, T/C: 48.2%
[8]
  viability, T/C: 46.4%
[9]
  viability, T/C: 30.4%
[10]
  viability, T/C: 10.9%
Second compound 0.1 µM, first compound 0.00316 µM
  viability, T/C: 78.5%
Second compound 0.1 µM, first compound 0.01 µM
  viability, T/C: 57.1%
[11]
  viability, T/C: 49.8%
[12]
  viability, T/C: 44.9%
[13]
  viability, T/C: 26.1%
[14]
  viability, T/C: 8.04%
Second compound 0.316 µM, first compound 0.00316 µM
  viability, T/C: 79.2%
Second compound 0.316 µM, first compound 0.01 µM
  viability, T/C: 55.2%
[15]
  viability, T/C: 50.5%
[16]
  viability, T/C: 51.6%
[17]
  viability, T/C: 29.1%
[18]
  viability, T/C: 8.39%
Second compound 1 µM, first compound 0.00316 µM
  viability, T/C: 77.9%
Second compound 1 µM, first compound 0.01 µM
  viability, T/C: 61.1%
[19]
  viability, T/C: 52.3%
[20]
  viability, T/C: 47.4%
[21]
  viability, T/C: 26.1%
[22]
  viability, T/C: 10.2%
Second compound 3.16 µM, first compound 0.00316 µM
  viability, T/C: 87%
Second compound 3.16 µM, first compound 0.01 µM
  viability, T/C: 68.8%
[23]
  viability, T/C: 56.3%
[24]
  viability, T/C: 48.6%
[25]
  viability, T/C: 29.7%
[26]
  viability, T/C: 12.6%
Second compound 10 µM, first compound 0.00316 µM
  viability, T/C: 78.5%
Second compound 10 µM, first compound 0.01 µM
  viability, T/C: 58%
[27]
  viability, T/C: 51.4%
[28]
  viability, T/C: 47.9%
[29]
  viability, T/C: 33.2%
[30]
  viability, T/C: 9.43%
